Data reported in patent US20030170643A1, “Regulation of apoB treatment and drug screening for cardiovascular and metabolic disorders or syndromes” (priority 1999, published 2003).

What was measured:
Assay type in all cases: cell-based
[1] = tested on: rat primary hepatocytes; test: Nascent VLDL re-uptake: VLDL-apoprotein secretion with or without heparin
Procedure: FIG. 9 illustrates that DHA inhibits the secretion of newly synthesized VLDL-apoproteins even when re-uptake is blocked. Rat primary hepatocytes were treated as in FIG. 1, except that media in the indicated wells also was supplemented with heparin (10 mg/ml). Total labeled VLDL-apoproteins were determined as in FIG. 3. The results for the fatty acids are expressed relative to the corresponding result for BSA and are shown as mean ±SE (n=6).
To evaluate whether there were differential effects of fish oil fatty acids and OA on the re-uptake of newly synthesized VLDL, an experimental design identical to that described above was employed, except heparin (0.1 mg/ml or 10 mg/ml) was added to the treatment media to block LDL receptor-dependent and proteoglycan-mediated re-uptake (Williams, K. J., Fless, G. M., Petrie, K. A., Snyder, M. L., Brocia, R. W., and Swenson, T. L. (1992) J Biol Chem 267(19), 13284-92). Control experiments were performed showing that the flotation properties of VLDL were unchanged in the presence of heparin.
The concentration of heparin was 10 mg/ml, which blocks lipoprotein binding to both LDL receptors and HSPGs (Williams, K. J. et al. (1992) J Biol Chem 267(19), 13284-92, and citations therein). […] Thus, there is substantial re-uptake of nascent VLDL by primary hepatocytes in the presence of either fatty acid. […] Thus, re-uptake of newly exported apoB cannot explain the effect of Ω-3 fatty acids on lipoprotein secretion.

[2] = tested on: rat primary hepatocytes; test: TBARS assay of ROS in rat primary hepatocytes; details: FIG. 16B
[3] = tested on: rat hepatoma cells; test: TBARS assay of ROS in cell lysates of rat hepatoma cells; details: co-treatment with DHA, FIG. 13C
Procedure: FIG. 13 illustrates that either an iron chelator (DFX) or lipid antioxidants block DHA-stimulated apoB degradation and reactive oxygen species (ROS) production. Rat hepatoma cells were plated in culture wells and pre-incubated in media containing either DHA or DHA with one of the indicated compounds. Radiolabeled methionine/cysteine was added to the culture media for 15 minutes, after which time, the culture media were replaced by fresh media identical in composition except that radiolabeled methionine/cysteine were replaced by unlabeled methionone/cysteine. The recovery of labeled apoB100 ([^35S]-apoB100) from the media and cell lysate was determined at the indicated time points (with time 0 being the point when the fresh media were applied to the cells) by immunoprecipitating apoB species with a rabbit polyclonal antibody to rat apoB, resuspending the immunoprecipitates, combining aliquots from cell lysate and media samples from each well, resolving the protein contents of the combined immunoprecipitates by SDS-polyacrylamide gel electrophoresis (SDS-PAGE), and exposing the resultant gels to X-ray film in order to visualize the labeled apoB bands. In panel A are shown representative signals for radiolabeled apoB100 in each of the treatment conditions. […] For each treatment, there were at least 2 wells/treatment for each time point and the entire experiment repeated. The signal intensities of the apoB100 bands were quantified by densitometry and the mean relative recoveries (the % of the 15 minute, or initial, value still remaining at 120 minutes) ±SEM are shown in panel B. Note that the visual impressions observable in panel A are confirmed by the quantitative analysis; i.e., there is a substantial increase in labeled apoB100 recovery with any of the co-treatments. In panel C, the ROS content of the cell lysates at the end of the experiment was measured by the standard TBARS assay (Stocks et al., 1974, Clin Sci Mol Med 47,215-222). Note that compared to control (BSA), DHA induced a large increase in TBARS, as expected because of its high content on unsaturated bonds. […] FIG. 15 illustrates that AA stimulates apoB100 degradation and increases ROS. […] Note in the upper panel that the combined recovery (from two separate wells/time point) of radiolabeled apoB100 decreased from 15 to 120 minutes, indicating significant apoB100 degradation had occurred in the presence of AA. […] In addition to being a source of ROS, AA can also be converted by cyclooxygenase (COX) to bioactive prostaglandin compounds. We therefore repeated the experiment with AA but with co-treatment by the COX inhibitor aspirin.

[4] = tested on: rat hepatoma cells; test: Pulse-chase recovery of [35S]-apoB100 (apoB100 degradation) in rat hepatoma cells; details: co-treatment with DHA, FIG. 13A and 13B
Procedure: FIG. 13 illustrates that either an iron chelator (DFX) or lipid antioxidants block DHA-stimulated apoB degradation and reactive oxygen species (ROS) production. Rat hepatoma cells were plated in culture wells and pre-incubated in media containing either DHA or DHA with one of the indicated compounds. Radiolabeled methionine/cysteine was added to the culture media for 15 minutes, after which time, the culture media were replaced by fresh media identical in composition except that radiolabeled methionine/cysteine were replaced by unlabeled methionone/cysteine. The recovery of labeled apoB100 ([^35S]-apoB100) from the media and cell lysate was determined at the indicated time points (with time 0 being the point when the fresh media were applied to the cells) by immunoprecipitating apoB species with a rabbit polyclonal antibody to rat apoB, resuspending the immunoprecipitates, combining aliquots from cell lysate and media samples from each well, resolving the protein contents of the combined immunoprecipitates by SDS-polyacrylamide gel electrophoresis (SDS-PAGE), and exposing the resultant gels to X-ray film in order to visualize the labeled apoB bands. In panel A are shown representative signals for radiolabeled apoB100 in each of the treatment conditions. […] For each treatment, there were at least 2 wells/treatment for each time point and the entire experiment repeated. The signal intensities of the apoB100 bands were quantified by densitometry and the mean relative recoveries (the % of the 15 minute, or initial, value still remaining at 120 minutes) ±SEM are shown in panel B. Note that the visual impressions observable in panel A are confirmed by the quantitative analysis; i.e., there is a substantial increase in labeled apoB100 recovery with any of the co-treatments. In panel C, the ROS content of the cell lysates at the end of the experiment was measured by the standard TBARS assay (Stocks et al., 1974, Clin Sci Mol Med 47,215-222). Note that compared to control (BSA), DHA induced a large increase in TBARS, as expected because of its high content on unsaturated bonds.
FIG. 14 illustrates that DHA, but not saturated MA, induces apoB100 degradation in rat hepatoma cells. An experiment similar to the one described in FIG. 13 was performed, with the following changes: A) The immunoprecipitates from cell lysate and media samples were not combined, but separately analyzed. B) In addition to the 15 and 120 minute time points, apoB recovery was determined at 30 minutes. C) In addition to DHA, the effects of the fatty acid myristic (MA) were also tested because it has no unsaturated bonds and should not give rise to ROS.
FIG. 15 illustrates that AA stimulates apoB100 degradation and increases ROS. […] Note in the upper panel that the combined recovery (from two separate wells/time point) of radiolabeled apoB100 decreased from 15 to 120 minutes, indicating significant apoB100 degradation had occurred in the presence of AA. […] In addition to being a source of ROS, AA can also be converted by cyclooxygenase (COX) to bioactive prostaglandin compounds. We therefore repeated the experiment with AA but with co-treatment by the COX inhibitor aspirin.
To further explore the underlying mechanisms, rat hepatoma cells or primary hepatocytes were incubated with the Ω-3 fatty acid DHA complexed to BSA, while blocking candidate cellular mediators. […] There was, however, strong evidence against a role for calcium. Chelation of intracellular Ca^++ with BAPTA-AM, pharmacologic blockage of Ca^++ channels, depletion of the ER-calcium pool, and increasing Ca++ influx with an ionophore each had no effect. Because EGTA also chelates Fe^+++, and DHA is subject to Fe^+++-dependent peroxidation, the role of this lipid modification was examined. As shown in FIG. 13A and 13B, Desferroxamine (DFX), a chelator of Fe^+++, the antioxidant vitamin E (Vit E), and the synthetic antioxidant BHT, each inhibited DHA-stimulated apoB100 degradation by ˜60%.

[5] = tested on: rat primary hepatocytes; test: Basal apoB100 degradation (pulse-chase recovery) in rat primary hepatocytes; details: FIG. 16A
[6] = tested on: rat primary hepatocytes; test: Secretion of newly synthesized ([35S]methionine-labeled) VLDL-apoproteins by rat primary hepatocytes incubated with fatty acid/BSA complexes; details: fatty acid/BSA complexes (0.8 mM FA), VLDL fraction
Procedure: Cells were plated at a density of 2×10^6 cells/ml on 60-mm culture dishes (previously coated with poly-D-lysine) in modified M199 medium (M199, 1% fetal bovine serum [FBS], 1 mM nicotinamide, 0.1 nM insulin, 3 mg/ml choline, 1.1% L-glutamine, 1% BSA). After a four-hour attachment period, the medium was changed (modified M199 identical to the above except BSA was omitted and the concentration of FBS was raised to 10%). The next morning, cells were washed in serum-free medium three times, the experimental media added, and the cells incubated at 37° C. for 4-6 hours. The experimental medium consisted of serum-free RPMI containing the appropriate isotopes (see below) and fatty acids (FA) present at a final concentration of 0.8 mM complexed to BSA (FA:BSA molar ratio=5:1). The fatty acids used were oleic (OA), EPA, and DHA. Control medium was identical, except that BSA (0.16 mM) without fatty acids was present. For metabolic labeling of proteins, [^35S]methionine (70 uCi/ml) was included in the experimental media.
Following the 4-6 hour incubation period, the cell monolayer was washed, then solubilized in 0.1 M NaOH, and the cell protein determined by the Lowry method (Lowry, O. H., Rosebrough, N. J., Farr, A. L., and Randall, R. J. (1951) J Biol Chem 193, 265-75). Each 60 mm dish contained approximately 1-1.5 mg of cell protein. The secreted apoproteins were isolated from the medium either by ultracentrifugation or immunoprecipitation. To isolate the d<1.006 (VLDL) and 1.006<d<1.063 (IDL and LDL) g/ml density classes by centrifugation, sequential 20 hour runs at 48,000 rpm in a 50 Ti Beckman rotor at 4° C. were performed. After the first run at d=1.006, the upper VLDL layer was harvested and the density of the infranatant adjusted to 1.066 g/ml with solid KBr. After being overlaid with a KBr solution of density 1.063, the adjusted infranatant was re-centrifuged as before to isolate the IDL and LDL fractions. In some experiments, the HDL fraction (1.063<d<1.21) was isolated by sequential density centrifugation. Lipoprotein fractions were then dialyzed against 0.9% NaCl containing 10 mM unlabeled methionine, 0.2 mM PMSF, and 2 mM EDTA. Dialyzed lipoproteins were delipidated using 9 volumes of 100% isopropanol. Apoproteins were then collected by centrifugation in a Sorval HB-4 rotor at 10,000 rpm and 4° C. for 20 min, and dissolved in buffer (0.01 M phosphate, pH 7,1 % SDS, 10% glycerol), in preparation for electrophoresis.
To immunoprecipitate apoB or apoE from unfractionated conditioned medium, monospecific rabbit antiserum to rat apoB or apoE was used. Briefly, an aliquot of the medium was mixed with an equal volume of diluted antiserum (1:100 in PBS and 1% BSA) and incubated overnight at 4° C. Staph A was added in the form of immunoprecipitin, and the resultant precipitate containing the immune complexes was washed extensively, the staph A cells removed, and the isolated apoprotein dissolved in gel sample buffer (0.0625M tris/Cl, pH 6.8, 20% glycerol, 2% SDS). Electrophoretic separation of apoVLDL, apoIDL/LDL, and immunoprecipitates was accomplished using 3.5% acrylamide-18% glycerol gels as described (Maguire, G. F., Lee, M., and Connelly, P. W. (1989) J Lipid Res 30, 757-61). An aliquot of each sample was taken for scintillation counting, so that total radioactivity applied to each lane could be determined. Also, protein size standards were included in each gel.
After electrophoresis, the gels were stained, fixed, soaked in Enhance fluor solution, and dried following protocols supplied by the manufacturer. Dried gels were then exposed to X-ray film at −70° C. and signals on the resulting fluorograms were typically quantified by densitometry or phosphorimaging. Using the total radioactivity applied to each lane of the gel and the relative signal intensity of each band in that lane, the radioactivity associated with each apoprotein species was calculated. […]

[7] = tested on: McArdle RH-7777 cells; test: Secretion of labeled apoB and apoE by McArdle RH-7777 cells after MTP inhibition; details: rat hepatoma cells, 4 hr, MTP inhibitor
Procedure: FIG. 7 illustrates that inhibition of MTP reduces the secretion of newly synthesized apoB100 without affecting apoE. Rat McA hepatoma cells were incubated at 37 °C for 4 hr with [ ^35S]methionine in the absence (Control) or presence (MTPI) of an inhibitor of MTP activity. Equal aliquots of the conditioned media samples from duplicate wells were subjected to separate immunoprecipitations with anti-apoB or anti-apoE antiserum. For each well, the resulting pellets from the two immunoprecipitations were combined and analyzed by SDS-PAGE and fluorography.
To determine the differential effects of MTP inhibition on the secretion of labeled apoB and apoE, in some experiments, McArdle RH-7777 cells were pre-treated for 30 min with MTP inhibitor BMS-200150 ([…] dissolved in DMSO; (Jamil, H., Gordon, D. A., Eustice, D. C., Brooks, C. M., Dickson, J. K., Jr., Chen, Y., Ricci, B., Chu, C.-H., Harrity, T. W., Ciosek, C. P., Jr., Biller, S. A., Gregg, R. E., and Wetterau, J. R. (1996) Proc Natl Acad Sci USA 93, 11991-11995)) or DMSO alone (final concentration 0.5%) before adding radiolabel. The cells were further incubated for 4 hr and the conditioned media contents of apoB and apoE determined by immunoprecipitation and SDS-PAGE analysis as described above.

Compound: heparin
- apoB output in the presence of either fatty acid ([1]; heparin 0.1 mg/ml): failed to increase
- net secretion of newly synthesized VLDL-apoproteins during treatment with either OA or DHA ([1]; heparin 10 mg/ml, P<0.01): approximately two-fold

Compound: vitamin E [Vit E]
- ROS level (TBARS) [2]: reduced
- DHA-increased ROS, TBARS assay, with co-treatment [3]: reduced
- inhibition of DHA-stimulated apoB100 degradation [4]: ~60%
- basal level of apoB degradation [5]: essentially reversed

Compound: CC/C=C\C/C=C\C/C=C\C/C=C\C/C=C\C/C=C\CCC(=O)O [DHA, docosahexaenoic acid]
- secretion of newly synthesized VLDL-ApoB48, percentage of secretion observed with BSA alone [6]: 39 ± 3 percentage
- secretion of newly synthesized VLDL-ApoB100, percentage of secretion observed with BSA alone [6]: 24 ± 3 percentage
- secretion of newly synthesized VLDL-ApoE, percentage of secretion observed with BSA alone [6]: 53 ± 2 percentage
- secretion of VLDL apoproteins, % of the OA control ([1]; independent of heparin treatment (10 mg/ml)): approximately 50%

Compound: O=C1c2ccccc2CN1C1CCN(CCC(c2ccccc2)c2ccccc2)CC1 [BMS compound #200150]
- secretion of newly synthesized apoB100 [7]: almost completely abolished
- secretion of newly synthesized apoE [7]: no significant effect
